Patent US7923465B2, “Cannabinoid receptor ligands, pharmaceutical compositions containing them, and process for their preparation” (priority 2005, dated 2011)
Read-outs that look alike come from different tables or passages of the source.

What was measured:
CB1 [1] = biological target: T1, CB1 (Rattus norvegicus, UniProt P20272); test: GTPγS binding assay, CB1 functional assay in rat cerebellar membrane (Protocol VIII); format: biochemical; set-up: 10 μg rat cerebellum membrane; from tissue; host or cells: rat cerebellum membrane, prepared in-house; conditions: for activation at 1 µM / Per Se % Stimulation: tested at 1 uM; for inhibition at 1 µM / % Inhibition of WIN-55212-2 induced stimulation: tested at 1 uM in presence of 1 μM WIN 55,212-2
Procedure: VIII. Protocol for GTPγS Binding Assay (CB1 Functional Assay in Rat Cerebellar Membrane)
In this GTPγS binding assay, total, basal and nonspecific binding were determined. See Griffin G., Atkinson P. J., Showalter V. M., Martin B. R. and Abood M. E., “Evaluation of cannabinoid receptor agonists and antagonists using the Guanosine-5′-O-(3-(^35S)thio)-triphosphate binding assay in rat cerebellar membranes,” J Pharmacol Exp Ther 285: 553-560, 1998. Three wells for total binding, three wells for basal binding, and three wells for nonspecific binding at 0.2 nM concentration of radioligand were used. Basal binding was defined by 50 μM GDP (Guanosine diphosphate) and non-specific binding was defined by 10 μM unlabeled GTPγS. 10 μg rat cerebellum membrane, 50 μM of GDP, WIN-55212-2 or test compound (1 μM or 300 nM), 10 μM unlabeled GTPγs, and 0.2 nM of [^35S]GTPγS were added into a 96 well plate and the final volume of the reaction mixture was made with GTPγS buffer (50 mM Tris, 3 mM anhydrous MgCl2, 0.2 mM EGTA and 100 mM NaCl pH 7.4) to 200 μl. The plates were incubated at 30° C. for 1 hour. Then the reaction was stopped by filtration using a Whatman GF/B-96 microfilter plate. Three washings were given using Tris-HCl. The radioactivity bound to the brain membrane was retained on the filter disks to which scintillation fluid was added (Microscint PS). Then plates were read for radioactive counts using a Beta Liquid Scintillation Counter (Packard Instruments, Ill., USA).
The rat cerebellar brain membrane was prepared as follow: • 1. Sacrifice the rat and take out the whole brain and separate cerebellum as fast as possible and keep it on ice. • 2. Take the weight of the cerebellum and homogenize in 30 ml of homogenizing buffer (50 mM Tris-HCL containing 1 mM EDTA and 5% sucrose, pH 7.5) using homogenizer in cold condition. • 3. Centrifuge the homogenized cerebellum at 18000 rpm (38000 g) for 15 min at 4° C. • 4. Resuspend the pellet in 5 ml 50 mM Tris-HCL containing 1 mM EDTA and keep it on ice for 30 min. • 5. Pass the membrane through insulin syringe to ensure uniform suspension. • 6. Centrifuge the membrane at 18000 rpm at 4° C. for 20 min. • 7. Reconstitute the pellet in 3 ml of GTPγS buffer and estimate the protein by BCA assay and store the membrane in aliquots of 1000 μg of protein. CB1 Agonist and Antagonist Activity Screening Assay
The test compounds were screened at a final concentration of 1 μM or 300 nM in the absence and presence of 1 μM of WIN 55, 212-2 in the same manner as described in the GTPγS binding assay.
An agonist will stimulate the GTPγS binding over the basal.
An inverse agonist will decrease the basal GTPγS binding and/or produce more than 100% inhibition of the agonist (WIN-55212-2) induced stimulation.
The percent stimulation of GTPγS binding by each test compound at 1 μM or 300 nM concentration in the absence and presence of 1 μM WIN 55, 212-2 was calculated by comparing it with basal specific bound (Basal binding—Non Specific binding) values.

CB1 [2] = biological target: T1, CB1; test: Rat CB1 receptor binding using brain membrane, [3H]SR141716A displacement (Protocol I); set-up: CB1 receptor present in a rat brain membrane preparation; from tissue; host or cells: rat brain membrane; inhibition: dose or concentration left out as unconfirmed; conditions: for inhibition: 1 h
hCB2 = hCB2 (Homo sapiens, UniProt P34972); test: In vitro binding assay using hCB2-CHO membranes, [3H]-CP-55,940 displacement (Protocol IV); set-up: expressed in transfected cells; host or cells: CHO (hCB2-CHO, generated in-house); conditions: hCB2-CHO membranes, [3H]-CP-55,940 displacement
Procedure, shortened: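 Displacement of [3H]-CP-55,940 (0.75 nM) from membranes of CHO cells expressing human CB2 (25-50 μg) was measured in Tris-BSA buffer pH 7.4 with 5 mM MgCl2, 1 mM EDTA, 0.1% BSA, 1 h at 30 °C. Test compounds were at 300 nM final; nonspecific binding defined with 0.5 μM CP-55,940. Values are % displacement of specific binding.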

[3] = 1 h, GTPγS binding over basal, rat cerebellar membrane, read-out: Per Se % Stimulation
[4] = GTPγS binding, read-out: % Inhibition of WIN-55212-2 induced stimulation
[5] = rat brain membrane, [3H]SR141716A displacement, read-out: % Displacement Protocol I
[6] = GTPγS binding over basal, rat cerebellar membrane
[7] = rat brain membrane, [3H]SR141716A displacement
[8] = read-out: % Displacement Protocol I, rat brain membrane, [3H]SR141716A displacement

T1 sequence (P20272 whole entry): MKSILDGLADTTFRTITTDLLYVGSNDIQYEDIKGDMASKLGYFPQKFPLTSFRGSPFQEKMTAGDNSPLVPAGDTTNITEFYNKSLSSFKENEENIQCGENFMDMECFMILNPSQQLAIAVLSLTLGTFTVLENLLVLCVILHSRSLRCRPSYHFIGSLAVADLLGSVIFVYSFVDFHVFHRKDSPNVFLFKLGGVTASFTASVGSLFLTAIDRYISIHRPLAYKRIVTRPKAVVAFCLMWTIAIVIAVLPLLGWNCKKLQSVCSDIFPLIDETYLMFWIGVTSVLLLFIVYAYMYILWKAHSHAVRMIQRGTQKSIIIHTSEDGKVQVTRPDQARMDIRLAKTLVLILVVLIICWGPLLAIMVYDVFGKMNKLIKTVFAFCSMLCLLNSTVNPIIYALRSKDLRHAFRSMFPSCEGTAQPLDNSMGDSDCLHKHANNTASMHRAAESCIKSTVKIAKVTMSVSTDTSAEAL
Sequence of hCB2 (P34972 whole entry): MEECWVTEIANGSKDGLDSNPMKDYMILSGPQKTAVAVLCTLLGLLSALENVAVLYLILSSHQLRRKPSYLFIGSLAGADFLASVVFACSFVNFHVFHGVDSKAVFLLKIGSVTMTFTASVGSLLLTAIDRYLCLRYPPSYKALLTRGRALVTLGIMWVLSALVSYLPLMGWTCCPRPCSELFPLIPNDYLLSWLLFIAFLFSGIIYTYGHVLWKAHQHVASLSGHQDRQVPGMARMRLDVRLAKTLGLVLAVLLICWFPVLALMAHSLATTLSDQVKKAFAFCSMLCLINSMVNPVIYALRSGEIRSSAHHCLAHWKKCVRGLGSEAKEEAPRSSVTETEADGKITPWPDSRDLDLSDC

Row | SMILES | melting point [°C] | activation at 1 µM (CB1 [1]; [3]) [%] | inhibition at 1 µM (CB1 [1]; [4]) [%] | inhibition (CB1 [2]; [5]) [%] | further results
1 | CN(NC(=O)c1nn(-c2ccc(Cl)cc2)c2c1C1CC3CC(C1)CC2C3)C1CCCCC1 [Example 107, N(7)-(N-cyclohexyl-N-methylamino)-5-(4-chlorophenyl)-5,6-diazatetracyclo[7.3.1.1^3,11.0^4,8]tetradeca-4(8),6-diene-7-carboxamide] | 219 | 4 | 71.5 | 97.4 | 
2 | O=C(NCc1ccccc1Cl)c1nn(-c2ccc(Cl)cc2)c2c1C1CC3CC(C1)CC2C3 [Example 111, N(7)-(2-Chlorobenzyl)-5-(4-chlorophenyl)-5,6-diazatetracyclo[7.3.1.1^3,11.0^4,8]tetradeca-4(8),6-diene-7-carboxamide] | 162 to 164 | 6.1 | 101 | 111 | 
3 | O=C(NNc1ccc(Cl)cc1Cl)c1nn(-c2ccc(Cl)cc2)c2c1C1CC3CC(C1)CC2C3 [Example 126, N(7)-(2,4-Dichlorophenylamino)-5-(4-chlorophenyl)-5,6-diazatetracyclo[7.3.1.1^3,11.0^4,8]tetradeca-4(8),6-diene-7-carboxamide] |  | -7.9 | 104 | 118 | 
4 | CN(NC(=O)c1nn(-c2ccc(Cl)cc2)c2c1C1CC3CC(C1)CC2C3)c1ccc(Cl)cc1Cl [Example 127] |  |  |  |  | Per Se % Stimulation (CB1 [1]; [6]): 18.0%; % Inhibition of WIN-55212-2 induced stimulation (CB1 [1]; GTPγS binding): 100.2%; % Displacement Protocol I (CB1 [2]; [7]): 85.3%
5 | O=C(NN(c1ccccc1)c1ccccc1)c1nn(-c2ccc(Cl)cc2)c2c1C1CC3CC(C1)CC2C3 [Example 137, N(7)-(N′,N′-Diphenylamino)-5-(4-chlorophenyl)-5,6-diazatetracyclo[7.3.1.1^3,11.0^4,8]tetradeca-4(8),6-diene-7-carboxamide] | 214 | 13 | 76 |  | inhibition (CB1 [2]; [8]): 76.7%
6 | O=C(NCc1ccccc1)c1nn(-c2ccc(Cl)cc2)c2c1C1CC3CC(C1)CC2C3 [Example 139, N(7)-Benzyl-5-(4′-chlorophenyl)-5,6-diazatetracyclo[7.3.1.1^3,11.0^4,8]tetradeca-4(8)-6-diene-7-carboxamide] |  |  |  |  | Per Se % Stimulation (CB1 [1]; [6]): −8.5%; % Inhibition of WIN-55212-2 induced stimulation (CB1 [1]; GTPγS binding): 109.1%; % Displacement Protocol I (CB1 [2]; [7]): 62.4%
7 | O=C(NN1CCCCC1)c1nn(-c2ccc(F)cc2F)c2c1C1CC3CC(C1)CC2C3 [Example 143, N(7)-Piperidino-5-(2,4-difluorophenyl)-5,6-diazatetracyclo[7.3.1.1^3,11.0^4,8]tetradeca-4(8),6-diene-7-carboxamide] | 215 | 43.1 | 45 | 102 | 
8 | O=C(NNc1ccccc1)c1nn(-c2ccc(Cl)cc2Cl)c2c1C1CC3CC(C1)CC2C3 [Example 173, N(7)-Phenylamino-5-(2,4-dichlorophenyl)-5,6-diazatetracyclo[7.3.1.1^3,11.0^4,8]tetradeca-4(8),6-diene-7-carboxamide] | 162 to 163 | 1.3 | 99.5 | 67.1 | 
9 | O=C(NN(c1ccccc1)c1ccccc1)c1nn(-c2ccc(Cl)cc2Cl)c2c1C1CC3CC(C1)CC2C3 [Example 177, N(7)-(N′,N′-Diphenylimino)-5-(2,4-dichlorophenyl)-5,6-diazatetracyclo[7.3.1.1^3,11.0^4,8]tetradeca-4(8),6-diene-7-carboxamide] |  |  |  |  | % Displacement Protocol IV (hCB2): 15.26%; Per Se % Stimulation (CB1 [1]; [6]): 9.7%; % Inhibition of WIN-55212-2 induced stimulation (CB1 [1]; GTPγS binding): 109.1%; % Displacement Protocol I (CB1 [2]; [7]): 75.6%
10 | O=C(NN1CCCCC1)c1nn(-c2ccc(Cl)cc2Cl)c2c1C1CC3CC(C1)CC2C3 [Example 180, N(7)-piperidino-5-(2′,4′-dichlorophenyl)-5,6-diazatetracyclo[7.3.1.1^3,11.0^4,8]tetradeca-4(8),6-diene-7-carboxamide] |  | 10 | 87.9 | 40.6 | inhibition at 0.3 µM (hCB2; 1 h, read-out: % Displacement Protocol IV): 13.2%
11 | O=C(NCc1ccccc1Br)c1nn(-c2ccc(Cl)cc2)c2c1C1CCC2C1 (centres unmarked) [Example 224, N(3)-(2-Bromobenzyl)-1-(4-chlorophenyl)-4,5,6,7-tetrahydro-1H-4,7-methano-indazole-3-carboxamide] | 141 to 142 | 5 | 78.1 |  | inhibition (CB1 [2]; [8]): 81.6%
12 | O=C(NNc1ccc(Cl)cc1Cl)c1n[nH]c2c1C1(c3ccc(Cl)cc3)CCC2C1 (centres unmarked) [Example 230, N(3)-[(2,4-Dichlorophenyl)amino]-4-(4-chlorophenyl)-4,5,6,7-tetrahydro-1H-4,7-methano-indazole-3-carboxamide] |  | 42.4 | 99.4 | 87.2 | 
13 | O=C(NC1CCCCC1)c1nn(-c2ccc(Cl)cc2Cl)c2c1C1CCC2C1 (centres unmarked) [Example 237, N(3)-Cyclohexyl-1-(2,4-dichlorophenyl)-4,5,6,7-tetrahydro-1H-4,7-methano-indazole-3-carboxamide] |  | 7.1 | 74.7 | 65.6 | 
14 | O=C(NC12CC3CC(CC(C3)C1)C2)c1nn(-c2ccc(Cl)cc2Cl)c2c1C1CCC2C1 (centres unmarked) [Example 242, N(3)-(Adamantan-1yl)-1-(2,4-dichlorophenyl)-4,5,6,7-tetrahydro-1H-4,7-methano-indazole-3-carboxamide] | 201 to 204 |  |  |  | activation at 0.3 µM (CB1 [1]; 1 h, GTPγS binding over basal, rat cerebellar membrane, tested at 300 nM, read-out: Per Se % Stimulation): 33.4%; inhibition at 0.3 µM (CB1 [1]; GTPγS binding, tested at 300 nM in presence of 1 μM WIN 55,212-2, read-out: % Inhibition of WIN-55212-2 induced stimulation): 22.9%
15 | O=C(NNc1ccccc1F)c1nn(-c2ccc(Cl)cc2Cl)c2c1C1CCC2C1 (centres unmarked) [Example 264, N(3)-[(2-Fluorophenyl)amino]-1-(2,4-dichlorophenyl)-4,5,6,7-tetrahydro-1H-4,7-methano-indazole-3-carboxamide] |  | -0.1 | 94.5 | 85.6 | 
16 | O=C(NCc1ccccc1)c1nn(-c2ccc(Cl)cc2Cl)c2c1C1CCC2C1 (centres unmarked) [Example 269, N(5)-benzyl-3-(2′,4′-dichlorophenyl)-3,4-diazatricyclo[5.2.1.0^2,6]deca-2(6),4-diene-5-carboxamide] |  | 6 | 91.4 | 47.7 | 
17 | Cl.O=C(NN1CCCCC1)c1nn(-c2ccc(Cl)cc2Cl)c2c1C1CCC2c2ccccc21 (centres unmarked) [Example 503, N(12)-Piperidino-10-(2,4-dichlorophenyl)-10,11-diazatetracyclo[6.5.2.0^2,7.0^9,13]pentadeca-2,4,6,9(13),11-pentaene-12-carboxamide hydrochloride] |  |  |  |  | Per Se % Stimulation (CB1 [1]; [6]): 1.5%; % Inhibition of WIN-55212-2 induced stimulation (CB1 [1]; GTPγS binding): 92.0%; inhibition (CB1 [2]; [8]): 81.2%
